Experimental data reported in patent US8426367B2, “Peptides specific for human blood outgrowth endothelial cells” (The University of North Carolina at Chapel Hill, priority 2007, dated 2013).

What was measured:
[1] = system: human blood outgrowth endothelial cells (HBOEC); experiment: Homogeneous phage recovery (relative binding) on HBOEC; settings: for concentration dependence of homogeneous recovery (binding to HBOEC): 1.10^9, 1.10^10, 1.10^11 pfu, 1 h at 4° C.; for concentration dependence of homogeneous recovery (binding to HBOEC) / relative recovery / affinity-avidity among the four selected phage clones: FIG. 1B; for relative recovery / affinity-avidity among the four selected phage clones: four clones with different consensus motifs
Experimental: Cells at 80% confluence were detached by treating with 0.05% trypsin-EDTA, washed once with EGM-2 medium and resuspended in EGM-2 containing 1% BSA at 1.10^5 cells per ml. In the pre-clearing step, 1 ml of HUVEC suspension at 1.10^5 cells per ml were incubated with 10 μl of PhD-12 peptide phage display system (New England Biolabs, Beverly, Mass.) within 1.5 ml Eppendorf tube for 2 hours at 4° C.; the mixture was then centrifuged. In the screening step, the unbound phage pool remaining in the supernatant was transferred to a fresh tube and incubated with 1 ml of HBOEC at 1.10^5 cells per ml. After 1 hour incubation at 4° C., the cell-phage complexes were separated by centrifugation. Following five intensive washes with TBS-0.5% Tween-20 buffer the bound phage was non-specifically eluted with 0.2 M Glycine-HCl buffer (pH 2.2) for 10 min. The eluate was immediately neutralized by 1M Tris.HCl buffer (pH 9.0). An aliquot of the eluted phage was used for determining titer by plaque assay. The rest of the phage eluate was amplified in mid-log phase E. coli ER2738 (New England Biolabs), and purified by precipitation with polyethylene glycol. An aliquot of the amplified phage was subsequently re-applied to newly trypsinized cells for a total of three biopanning rounds and two amplification steps.
Once isolated individual phage clones were subjected to evaluation of relative binding. High titer stocks of homogeneous phage were generated. Serially diluted phage (1.10^9 pfu, 1.10^10 pfu, and 1.10^11 pfu) were incubated with HBOEC (1.10^5 cells) for 1 h at 4° C. and then subjected to the same wash protocol used for the selection experiments. In parallel the same procedure was carried in a blocked Eppendorf tube without HBOEC to test for non specific binding for each selected sequence to the plastic container. Binding ratio is defined as recovery of phage bound to the target cells normalized to the recovery of phage non-specifically bound to the plastic.

[2] = system: panel of other cell types; experiment: Binding specificity: biopanning of HBOEC-selected phage clones on a panel of other cell types; set-up: species or system human; settings: 1.10^11 phage, 1 hour at 4° C., FIG. 3
Experimental: Lymphocytes and neutrophils were obtained from the same preparation. Lymphocytes were collected from the supernatant of the cultured buffy coat mononuclear cells that were allowed to adhere for 48 hours. The cell concentration was adjusted to 1.10^5 cells per ml.
Neutrophils were collected from the lower portion of the density gradient preparation. The upper layers were removed and processed as described above. The neutrophil-rich Histopaque layer was transferred to a centrifuge tube and diluted in fresh RPMI to wash the cells free of Histopaque. The suspension was centrifuged at 700×g for 15 min at room temperature. The supernatant was aspirated and the pellet resuspended in 10 ml of RPMI and centrifuged at 700×g for 10 min at room temperature. Contaminating red cells were lysed by quickly re-suspending the pellet in sterile water at 4° C. After 30 sec an equal volume of 1.8% saline solution was added in order to return the solution to isotonicity. The suspension was then centrifuged for 10 min at 250×g at 4° C. The cell lysis step was repeated. The final pellet was re-suspended and concentration adjusted to 1.10^5 cells per ml.
(§1) HUVEC were from the American Type Culture Collection (ATCC, Manassas, Va.). Passages 4 to 8 were used in this study. HUVEC were cultured in EGM-MV medium (Cambrex) at 37° C. in an incubator with humid atmosphere and 5% CO2.
Peripheral blood human HL-60 promyelocytic cells from the American Type Culture Collection (ATCC) were cultured in RPMI 1640 medium supplemented with 20% fetal bovine serum.
The specificity of HBOEC-selected phage clones was determined by biopanning on a panel of other cell types. The biopanning procedure was carried as described above with the exception of including the pre-clearing incubation step.

HUVEC = experiment: Cell binding assay: HUVEC attachment to peptide-modified substrates; type: cell-based, human; settings: compared to RGE negative controls; FIG. 8D
Experimental: as §1
Peptide sequences were immobilized to methacrylic terpolymers via one step chain transfer controlled free radical polymerization as described by Fussell and Cooper (Fussell 2004a and Fussell 2004b). The monomers used in the reactions were n-hexyl methacrylate (HMA) (Alfa Aesar, Ward Hill, Mass.), methyl methacrylate (MMA) (ACROS Organics, Pittsburgh, Pa.), and methacrylic acid (MAA) (ACROS Organics, Pittsburgh, Pa.), with 2,2-azobisisobutyronitrile (AIBN) (Aldrich Chemical, Milwaukee, Wis.) as the initiator. The molar ratio of the monomers in the reaction mixture was HMA:MMA:MAA—20:78:2. The peptides were added with the monomers after the solvent was purged with argon. The reaction temperature for the polymerization was 55-60° C. and reactions were carried out overnight.
Peptide grafted materials were coated on round microscope cover glass slides. Glass slides were sterilized by immersion in 70% ethanol. […] Digital images were taken from 15 random fields per sample and quantified by computer assisted analysis.

Substance	concentration dependence of homogeneous recovery (binding to HBOEC) [1]	recovery on cell types other than the target cells [2]	binding ratio (recovery of phage bound to target cells normalized to phage non-specifically bound to plastic) ([1]; 1.10^11 pfu homogeneous phage, 1.10^5 HBOEC, 1 hour at 4° C., FIG. 2)	relative recovery among phage bearing the TP(S/T/G) motif ([1]; 1.10^11 pfu, FIG. 2)	relative recovery / affinity-avidity among the four selected phage clones [1]	HUVEC attachment (HUVEC)
SVPPRYTLTLQW (Human outgrowth endothelial cell-binding peptides isolated from phage library) [SEQ ID NO:7]	bind HBOEC over a range of concentrations in a dose-dependent manner	No significant recovery				
SPPPSNAGSHHV (Human outgrowth endothelial cell-binding peptides isolated from phage library) [SEQ ID NO:32]	bind HBOEC over a range of concentrations in a dose-dependent manner	No significant recovery				
TPSLEQRTVYAK (Human outgrowth endothelial cell-binding peptides isolated from phage library) [SEQ ID NO:17]	bind HBOEC over a range of concentrations in a dose-dependent manner	No significant recovery	43±20	highest recovery	highest recovery	
fibronectin						statistically significant
MPTLTRAPHTAC (Human outgrowth endothelial cell-binding peptides isolated from phage library) [SEQ ID NO:37]	bind HBOEC over a range of concentrations in a dose-dependent manner	No significant recovery			lowest affinity/avidity	
